Data taken from patent US9567302B2, “Carbamate compounds and of making and using same” (Abide Therapeutics, Inc., priority 2012, dated 2017).

Experiments:
Format in all cases: biochemical
Parameters in all cases: from tissue
MAGL = target: T1, MAGL (Mus musculus, UniProt O35678); assay: In vitro competitive ABPP, % inhibition at fixed concentration, MAGL
T1 sequence (O35678 1-303): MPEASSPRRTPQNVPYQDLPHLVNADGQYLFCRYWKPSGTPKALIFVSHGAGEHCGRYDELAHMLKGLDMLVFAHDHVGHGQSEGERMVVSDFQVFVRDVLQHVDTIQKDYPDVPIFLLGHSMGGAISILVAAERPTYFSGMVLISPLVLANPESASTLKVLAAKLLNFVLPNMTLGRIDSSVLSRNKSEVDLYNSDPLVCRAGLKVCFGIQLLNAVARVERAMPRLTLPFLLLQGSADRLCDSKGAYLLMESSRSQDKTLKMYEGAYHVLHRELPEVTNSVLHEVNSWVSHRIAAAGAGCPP
Summary of the method: (§1)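 Mouse brain membrane proteome or cell lysate at 1.0 mg/ml was preincubated with inhibitor for 30 min at 37° C, then labelled with FP-Rh for another 30 min. After SDS-PAGE, activity was quantified from the fluorescent intensity of the MAGL, ABHD6 and FAAH bands.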

FAAH = target: T2, FAAH (Mus musculus, UniProt O08914); assay: In vitro competitive ABPP, % inhibition at fixed concentration, FAAH
T2 sequence (O08914 1-579): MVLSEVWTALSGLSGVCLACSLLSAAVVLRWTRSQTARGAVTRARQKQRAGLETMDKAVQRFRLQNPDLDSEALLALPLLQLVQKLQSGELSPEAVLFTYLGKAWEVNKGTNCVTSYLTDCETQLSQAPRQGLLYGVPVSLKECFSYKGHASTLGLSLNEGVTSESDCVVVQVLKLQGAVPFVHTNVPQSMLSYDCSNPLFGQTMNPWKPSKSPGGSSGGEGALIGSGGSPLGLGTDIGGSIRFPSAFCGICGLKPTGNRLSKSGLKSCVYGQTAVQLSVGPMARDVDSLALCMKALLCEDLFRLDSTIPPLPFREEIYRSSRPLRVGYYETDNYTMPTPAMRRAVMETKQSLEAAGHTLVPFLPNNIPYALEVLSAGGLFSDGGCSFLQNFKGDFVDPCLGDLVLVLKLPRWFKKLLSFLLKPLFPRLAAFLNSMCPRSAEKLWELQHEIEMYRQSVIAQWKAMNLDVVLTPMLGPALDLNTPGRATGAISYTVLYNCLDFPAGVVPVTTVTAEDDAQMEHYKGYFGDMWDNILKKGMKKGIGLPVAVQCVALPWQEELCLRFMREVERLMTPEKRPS
Summary of the method: as §1

ABHD6 = target: T3, ABHD6 (Mus musculus, UniProt Q8R2Y0); assay: In vitro competitive ABPP, % inhibition at fixed concentration, ABHD6
T3 sequence (Q8R2Y0 1-336): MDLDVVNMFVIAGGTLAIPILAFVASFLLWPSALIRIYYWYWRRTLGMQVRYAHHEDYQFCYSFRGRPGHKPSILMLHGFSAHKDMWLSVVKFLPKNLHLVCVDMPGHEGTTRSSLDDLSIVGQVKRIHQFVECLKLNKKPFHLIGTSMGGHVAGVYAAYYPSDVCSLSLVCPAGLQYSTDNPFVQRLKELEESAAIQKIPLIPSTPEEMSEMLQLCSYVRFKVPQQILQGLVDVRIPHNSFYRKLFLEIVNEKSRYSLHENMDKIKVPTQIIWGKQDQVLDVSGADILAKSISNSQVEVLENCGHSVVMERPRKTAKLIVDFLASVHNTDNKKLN
Summary of the method: as §1

In the case of `O=C(ON1C(=O)CCC1=O)N1CCN(Cc2cnc3ccccn23)CC1` [Example 147, 2,5-Dioxopyrrolidin-1-yl 4-(imidazo[1,2-a]pyridin-3-ylmethyl)piperazine-1-carboxylate], the inhibition at 1 µM (MAGL) is reported as < 25%, the inhibition at 1 µM (FAAH) is reported as < 25% and the inhibition at 1 µM (ABHD6) is reported as < 25%.
For `O=C(ON1C(=O)CCC1=O)N1CCN(Cc2ccc(Cl)c(C(=O)N3CCOCC3)c2)CC1` [Example 209, 2,5-Dioxopyrrolidin-1-yl 4-{[4-chloro-3-(morpholine-4-carbonyl)phenyl]methyl}piperazine-1-carboxylate], the inhibition at 1 µM (MAGL) was < 25%, the inhibition at 1 µM (FAAH) was < 25% and the inhibition at 1 µM (ABHD6) was < 25%.
In the case of `O=C(ON1C(=O)CCC1=O)N1CCN(Cc2ccc(Cl)cc2C(=O)N2CCCC2)CC1` [Example 196, 2,5-Dioxopyrrolidin-1-yl 4-{[4-chloro-2-(pyrrolidine-1-carbonyl)phenyl]methyl}piperazine-1-carboxylate], the inhibition at 1 µM (MAGL) is reported as 25 to 75%, the inhibition at 1 µM (FAAH) is reported as < 25% and the inhibition at 1 µM (ABHD6) is reported as < 25%.
With `O=C(ON1C(=O)CCC1=O)N1CCN(Cc2ccc(-c3cccc(F)c3)cc2F)CC1` [Example 162, 2,5-Dioxopyrrolidin-1-yl 4-{[2-fluoro-4-(3-fluorophenyl)phenyl]methyl}piperazine-1-carboxylate] the inhibition at 1 µM (MAGL) was > 75%, the inhibition at 1 µM (FAAH) was < 25% and the inhibition at 1 µM (ABHD6) was > 75%.
For `Cc1cc(CN2CCN(C(=O)ON3C(=O)CCC3=O)CC2)cc(C(=O)N2CCOCC2)c1` [Example 208, 2,5-Dioxopyrrolidin-1-yl 4-{[3-methyl-5-(morpholine-4-carbonyl)phenyl]methyl}piperazine-1-carboxylate], the inhibition at 1 µM (MAGL) was < 25%, the inhibition at 1 µM (FAAH) was < 25% and the inhibition at 1 µM (ABHD6) was < 25%.
In the case of `O=C(ON1C(=O)CCC1=O)N1CCN(Cc2ccc(N3CCOCC3)cc2)CC1` [Example 100, 2,5-Dioxopyrrolidin-1-yl 4-(4-morpholinobenzyl)piperazine-1-carboxylate], the inhibition at 1 µM (MAGL) is reported as < 25%, the inhibition at 1 µM (FAAH) is reported as < 25% and the inhibition at 1 µM (ABHD6) is reported as < 25%.
With `Cc1c(CN2CCN(C(=O)ON3C(=O)CCC3=O)CC2)cccc1C(=O)N1CCC1` [Example 207, 2,5-Dioxopyrrolidin-1-yl 4-{[3-(azetidine-1-carbonyl)-2-methylphenyl]methyl}piperazine-1-carboxylate] the inhibition at 1 µM (MAGL) was 25 to 75%, the inhibition at 1 µM (FAAH) was < 25% and the inhibition at 1 µM (ABHD6) was > 75%.
`O=C(ON1C(=O)CCC1=O)N1CCC(C(O)(c2ccc3c(c2)COC3)c2ccc3c(c2)COC3)CC1` [Example 158, 2,5-Dioxopyrrolidin-1-yl 4-[bis(1,3-dihydro-2-benzofuran-5-yl)(hydroxy)methyl]piperidine-1-carboxylate] was tested, and the inhibition at 1 µM (MAGL) was 25 to 75%, the inhibition at 1 µM (FAAH) was < 25% and the inhibition at 1 µM (ABHD6) was < 25%.
`CC(C)n1cc(CN2CCN(C(=O)ON3C(=O)CCC3=O)CC2)c(-c2ccccc2)n1` [Example 141, 2,5-Dioxopyrrolidin-1-yl 4-{[3-phenyl-1-(propan-2-yl)-1H-pyrazol-4-yl]methyl}piperazine-1-carboxylate] was tested, and the inhibition at 1 µM (MAGL) was 25 to 75%, the inhibition at 1 µM (FAAH) was < 25% and the inhibition at 1 µM (ABHD6) was 25 to 75%.
`Cc1nc(-c2ccccc2F)ccc1CN1CCN(C(=O)ON2C(=O)CCC2=O)CC1` [Example 183, 2,5-Dioxopyrrolidin-1-yl 4-{[6-(2-fluorophenyl)-2-methylpyridin-3-yl]methyl}piperazine-1-carboxylate] was tested, and the inhibition at 1 µM (MAGL) was 25 to 75%, the inhibition at 1 µM (FAAH) was < 25% and the inhibition at 1 µM (ABHD6) was > 75%.
In the case of `O=C(ON1C(=O)CCC1=O)N1CCN(C(c2ccc3c(c2)OC(F)(F)O3)c2ccc3c(c2)OC(F)(F)O3)CC1` [Example 150, 2,5-Dioxopyrrolidin-1-yl 4-[bis(2,2-difluoro-2H-1,3-benzodioxol-5-yl)methyl]piperazine-1-carboxylate], the inhibition at 10 µM (MAGL) is reported as > 75%, the inhibition at 10 µM (FAAH) is reported as < 25% and the inhibition at 10 µM (ABHD6) is reported as 25 to 75%.
For `Cc1c(CN2CCN(C(=O)ON3C(=O)CCC3=O)CC2)cccc1C(=O)N1CCCC1` [Example 206, 2,5-Dioxopyrrolidin-1-yl 4-{[2-methyl-3-(pyrrolidine-1-carbonyl)phenyl]methyl}piperazine-1-carboxylate], the inhibition at 1 µM (MAGL) was 25 to 75%, the inhibition at 1 µM (FAAH) was < 25% and the inhibition at 1 µM (ABHD6) was > 75%.
For `O=C(ON1C(=O)CCC1=O)N1CCN(Cc2cc(Cl)ccc2C(=O)N2CCCC2)CC1` [Example 200, 2,5-Dioxopyrrolidin-1-yl 4-{[5-chloro-2-(pyrrolidine-1-carbonyl)phenyl]methyl}piperazine-1-carboxylate], the inhibition at 1 µM (MAGL) was < 25%, the inhibition at 1 µM (FAAH) was < 25% and the inhibition at 1 µM (ABHD6) was < 25%.
For `O=C(CN1CCOCC1)N1CCN(C(=O)ON2C(=O)CCC2=O)CC1` [Example 215, 2,5-Dioxopyrrolidin-1-yl 4-[2-(morpholin-4-yl)acetyl]piperazine-1-carboxylate], the inhibition at 10 µM (MAGL) was < 25%, the inhibition at 10 µM (FAAH) was < 25% and the inhibition at 10 µM (ABHD6) was < 25%.
In the case of `C[C@H]1CN(Cc2ccc(N3CCOCC3)cc2Cl)CCN1C(=O)ON1C(=O)CCC1=O` [Example 89, 2,5-Dioxopyrrolidin-1-yl (2S)-4-{[2-chloro-4-(morpholin-4-yl)phenyl]methyl}-2-methylpiperazine-1-carboxylate], the inhibition at 1 µM (MAGL) is reported as 25 to 75%, the inhibition at 1 µM (FAAH) is reported as < 25% and the inhibition at 1 µM (ABHD6) is reported as 25 to 75%.
`O=C(ON1C(=O)CCC1=O)N1CCC(N2CCCC2)CC1` [Example 217, 2,5-Dioxopyrrolidin-1-yl 4-(pyrrolidin-1-yl)piperidine-1-carboxylate] was tested, and the inhibition at 10 µM (MAGL) was < 25%, the inhibition at 10 µM (FAAH) was < 25% and the inhibition at 10 µM (ABHD6) was < 25%.
In the case of `Cc1ccc(C(=O)N2CCOCC2)c(CN2CCN(C(=O)ON3C(=O)CCC3=O)CC2)c1` [Example 201, 2,5-Dioxopyrrolidin-1-yl 4-{[5-methyl-2-(morpholine-4-carbonyl)phenyl]methyl}piperazine-1-carboxylate], the inhibition at 1 µM (MAGL) is reported as < 25%, the inhibition at 1 µM (FAAH) is reported as < 25% and the inhibition at 1 µM (ABHD6) is reported as < 25%.
With `O=C(ON1C(=O)CCC1=O)N1CCN(Cc2cc(Cl)ccc2C(=O)N2CCOCC2)CC1` [Example 199, 2,5-Dioxopyrrolidin-1-yl 4-{[5-chloro-2-(morpholine-4-carbonyl)phenyl]methyl}piperazine-1-carboxylate] the inhibition at 1 µM (MAGL) was < 25%, the inhibition at 1 µM (FAAH) was < 25% and the inhibition at 1 µM (ABHD6) was 25 to 75%.
In the case of `O=C(ON1C(=O)CCC1=O)N1CCC(N2CCCC2=O)CC1` [Example 219, 2,5-Dioxopyrrolidin-1-yl 4-(2-oxopyrrolidin-1-yl)piperidine-1-carboxylate], the inhibition at 10 µM (MAGL) is reported as < 25%, the inhibition at 10 µM (FAAH) is reported as < 25% and the inhibition at 10 µM (ABHD6) is reported as 25 to 75%.
With `CS(=O)(=O)N1CCN(c2cc(Cl)ccc2CN2CCN(C(=O)ON3C(=O)CCC3=O)CC2)CC1` [Example 110, 2,5-Dioxopyrrolidin-1-yl 4-{[4-chloro-2-(4-methanesulfonylpiperazin-1-yl)phenyl]methyl}piperazine-1-carboxylate] the inhibition at 1 µM (MAGL) was 25 to 75%, the inhibition at 1 µM (FAAH) was < 25% and the inhibition at 1 µM (ABHD6) was 25 to 75%.
`O=C(ON1C(=O)CCC1=O)N1CCN(Cc2c(Cl)cccc2N2CCOCC2)CC1` [Example 81, 2,5-Dioxopyrrolidin-1-yl 4-{[2-chloro-6-(morpholin-4-yl)phenyl]methyl}piperazine-1-carboxylate] was tested, and the inhibition at 1 µM (MAGL) was < 25%, the inhibition at 1 µM (FAAH) was < 25% and the inhibition at 1 µM (ABHD6) was 25 to 75%.
For `CC(C)n1cc(CN2CCN(C(=O)ON3C(=O)CCC3=O)CC2)c(-c2ccccc2Cl)n1` [Example 142, 2,5-Dioxopyrrolidin-1-yl 4-{[3-(2-chlorophenyl)-1-(propan-2-yl)-1H-pyrazol-4-yl]methyl}piperazine-1-carboxylate], the inhibition at 1 µM (MAGL) was 25 to 75%, the inhibition at 1 µM (FAAH) was < 25% and the inhibition at 1 µM (ABHD6) was 25 to 75%.
In the case of `O=C(ON1C(=O)CCC1=O)N1CCN(Cc2ccc(Cl)cc2C(=O)N2CCOCC2)CC1` [Example 195, 2,5-Dioxopyrrolidin-1-yl 4-{[4-chloro-2-(morpholine-4-carbonyl)phenyl]methyl}piperazine-1-carboxylate], the inhibition at 1 µM (MAGL) is reported as < 25%, the inhibition at 1 µM (FAAH) is reported as < 25% and the inhibition at 1 µM (ABHD6) is reported as < 25%.
